pIC50: −log10 of the molar value.
Key:
Assay in all cases: NCI-60 screening, one-dose (10 µM) and five-dose, SRB
U251 = format: cell-based, human; details: five-dose; U251
COLO 205 = format: cell-based, human
CCRF-CEM = format: cell-based, human
TK-10 = format: cell-based, human
SK-OV-3 = format: cell-based, human
NCI-H460 = format: cell-based, human
MDA-MB-468 = format: cell-based, human; details: five-dose, MDA-MB-468
Description: Control cells Test cells FLD
available usually at NCI library.
An aliquot of frozen drug concentrate is […]

MOLT-4 = format: cell-based, human
SR = format: cell-based, human; details: five-dose
SF-539 = format: cell-based, human
SK-MEL-2 = format: cell-based, human
NCI-H226 = format: cell-based, human
T-47D = format: cell-based, human; details: five-dose
HOP-92 = format: cell-based, human
EKVX = format: cell-based, human; details: Homo sapiens, 10 μM, Non-Small-Cell Lung Cancer, read-out: Growth percentage
BT-549 = format: cell-based
[1] = Homo sapiens, five-dose, COLO 205
[2] = Homo sapiens, five-dose, NCI-H460
[3] = Homo sapiens, read-out: LC50 (the source's name)
[4] = Homo sapiens, five-dose, MOLT-4
[5] = Homo sapiens, five-dose, SF-539
[6] = Homo sapiens, five-dose, SK-MEL-2
[7] = Homo sapiens, five-dose, NCI-H226
[8] = Homo sapiens, five-dose, HOP-92
[9] = Homo sapiens, five-dose, BT-549

Cc1nc(SCC(=O)N2CCN(c3cc4c(cc3F)c(=O)c(C(=O)O)cn4C3CC3)CC2)sc1C(=O)/C=C/c1cccc(Cl)c1 [Compound 4b, (E)-7-(4-(2-((5-(3-(3-Chlorophenyl)acryloyl)-4-methylthiazol-2-yl)thio)acetyl)piperazin-1-yl)-1-cyclopropyl-6-fluoro-4-oxo-1,4-dihydroquinoline-3-carboxylic Acid]
TGI (U251): 100.0 µM | activity at 10 µM (COLO 205; Homo sapiens, 10 μM, COLO 205, Colon Cancer, read-out: Growth percentage): 114% | GI50 (COLO 205; [1]): 4.3 µM | pIC50 (COLO 205; [1]): 5.21 | CC50 (COLO 205; Homo sapiens, five-dose, COLO 205, read-out: LC50 (the source's name)): > 100 µM | TGI (COLO 205; five-dose, COLO 205): 100.0 µM | activity at 10 µM (CCRF-CEM; Homo sapiens, 10 μM, Leukemia, read-out: Growth percentage): 49.7% | GI50 (CCRF-CEM; Homo sapiens, five-dose): 6.9 µM | pIC50 (CCRF-CEM; Homo sapiens, five-dose): 4.93 | CC50 (CCRF-CEM; Homo sapiens, five-dose, read-out: LC50 (the source's name)): > 100 µM | TGI (CCRF-CEM; five-dose): 31.6 µM | activity at 10 µM (TK-10; Homo sapiens, 10 μM, TK-10, Renal Cancer, read-out: Growth percentage): 108% | GI50 (TK-10; Homo sapiens, five-dose, TK-10): > 100 µM | pIC50 (TK-10; Homo sapiens, five-dose, TK-10): < 4.00 | CC50 (TK-10; Homo sapiens, five-dose, TK-10, read-out: LC50 (the source's name)): > 100 µM | TGI (TK-10; five-dose, TK-10): 100.0 µM | activity at 10 µM (SK-OV-3; Homo sapiens, 10 μM, SK-OV-3, Ovarian Cancer, read-out: Growth percentage): 46.3% | pIC50 (SK-OV-3; Homo sapiens, five-dose, SK-OV-3): < 4.00 | CC50 (SK-OV-3; Homo sapiens, five-dose, SK-OV-3, read-out: LC50 (the source's name)): > 100 µM | TGI (SK-OV-3; five-dose, SK-OV-3): 100.0 µM | activity at 10 µM (NCI-H460; Homo sapiens, NCI-H460, 10 μM, NCI-H460, Non-Small-Cell Lung Cancer, read-out: Growth percentage): 76.7% | GI50 (NCI-H460; [2]): 58.9 µM | pIC50 (NCI-H460; [2]): 4.15 | CC50 (NCI-H460; Homo sapiens, five-dose, NCI-H460, read-out: LC50 (the source's name)): > 100 µM | TGI (NCI-H460; five-dose, NCI-H460): 100.0 µM | GI50 (MDA-MB-468; Homo sapiens): 3.9 µM | pIC50 (MDA-MB-468; Homo sapiens): < 4.00 | CC50 (MDA-MB-468; [3]): > 100 µM | TGI (MDA-MB-468): 15.5 µM | activity at 10 µM (MOLT-4; Homo sapiens, 10 μM, MOLT-4, Leukemia, read-out: Growth percentage): 66.1% | GI50 (MOLT-4; [4]): 12.9 µM | pIC50 (MOLT-4; [4]): 4.66 | LC50 (concentration killing 50% of cells) (MOLT-4; [4]): 56.2 µM | TGI (MOLT-4; five-dose, MOLT-4): 26.9 µM | GI50 (SR; Homo sapiens): 1.8 µM | pIC50 (SR; Homo sapiens): 5.49 | CC50 (SR; [3]): 9.1 µM | TGI (SR): 4.1 µM | activity at 10 µM (SF-539; Homo sapiens, SF-539, 10 μM, SF-539, CNS Cancer, read-out: Growth percentage): 22.1% | GI50 (SF-539; [5]): 3.7 µM | pIC50 (SF-539; [5]): 4.82 | CC50 (SF-539; Homo sapiens, five-dose, SF-539, read-out: LC50 (the source's name)): > 100 µM | TGI (SF-539; five-dose, SF-539): 61.7 µM | activity at 10 µM (SK-MEL-2; Homo sapiens, 10 μM, SK-MEL-2, Melanoma, read-out: Growth percentage): 60.8% | GI50 (SK-MEL-2; [6]): 46.8 µM | pIC50 (SK-MEL-2; [6]): < 4.00 | CC50 (SK-MEL-2; Homo sapiens, five-dose, SK-MEL-2, read-out: LC50 (the source's name)): > 100 µM | TGI (SK-MEL-2; five-dose, SK-MEL-2): 100.0 µM | activity at 10 µM (NCI-H226; Homo sapiens, 10 μM, NCI-H226, Non-Small-Cell Lung Cancer, read-out: Growth percentage): 80.9% | GI50 (NCI-H226; [7]): > 100 µM | pIC50 (NCI-H226; [7]): < 4.00 | LC50 (concentration killing 50% of cells) (NCI-H226; [7]): > 100 µM | TGI (NCI-H226; five-dose, NCI-H226): 100.0 µM | GI50 (T-47D; Homo sapiens, T47D): > 100 µM | pIC50 (T-47D; Homo sapiens, T47D): < 4.00 | CC50 (T-47D; Homo sapiens, T47D, read-out: LC50 (the source's name)): > 100 µM | TGI (T-47D): 100.0 µM | activity at 10 µM (HOP-92; Homo sapiens, 10 μM, HOP-92, Non-Small-Cell Lung Cancer, read-out: Growth percentage): 101% | GI50 (HOP-92; [8]): 44.7 µM | pIC50 (HOP-92; [8]): < 4.00 | LC50 (concentration killing 50% of cells) (HOP-92; [8]): > 100 µM | TGI (HOP-92; five-dose, HOP-92): 100.0 µM | activity at 10 µM (EKVX): 83.9% | activity at 10 µM (BT-549; Homo sapiens, 10 μM, BT-549, Breast Cancer, read-out: Growth percentage): -62.2% | GI50 (BT-549; [9]): 15.8 µM | pIC50 (BT-549; [9]): 4.45 | CC50 (BT-549; Homo sapiens, five-dose, BT-549, read-out: LC50 (the source's name)): 85.1 µM | TGI (BT-549; five-dose, BT-549): 36.3 µM
